We go through five compounds from patent publication EP4813980A1, “EP300/CBP REGULATOR, AND PREPARATION METHOD THEREFOR AND USE THEREOF” (Miracure Biotechnology Limited, priority 2023, dated 2025).

One assay concerns the target T1, CBP bromodomain (Homo sapiens, UniProt Q92793).
T1 construct: purchased
Description: CBP AlphaLISA Assay Kit: binding of CBP bromodomain to acetylated histone substrate. As to conditions: 30 min incubation with CBP and biotinylated substrate, N=2, unit inferred. Here is the method:
The biochemical activity test of CBP preparations was detected using CBP AlphaLISA® Assay Kit. The detection principle is based on the binding of CBP bromodomain to acetylated histone substrate. The compounds were incubated with CBP and biotinylated substrate for 30 min, followed by the addition of acceptor beads for 15 min and donor beads for 15 min. Alpha counts were read, data were analyzed using Prism 7.0 and IC50 values were calculated.

A further assay addresses BRD4 (Homo sapiens, UniProt O60885). The assay can be described thus: BRD4 counter-assay, tabulated with the CBP AlphaLISA test. It is filed as binding. As to conditions: unit inferred.
The subject of a further assay is OPM-2 cells. Description: Cell growth inhibition, CellTiter-Glo, 72 h. It is filed as cell-based. The following applies: Homo sapiens, 72 h culture, mean of N=2. Put shortly:
(§1)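 Cells seeded at 5×10^3/well in RPMI-1640 with 10% FBS, compound added next day at 0.5% DMSO final, 72 h at 37°C. CellTiter-Glo luminescence read; % inhibition normalised to 0.5% DMSO (0%) and 1% Tween 20 (100%), plotted against concentration in nM; mean ± SEM, N=2.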

The subject of the next assay is 22RV1 cells. Description: Cell growth inhibition, CellTiter-Glo, 72 h. As to conditions: Homo sapiens, 72 h culture, mean of N=2. It is filed as cell-based. Put shortly: as §1
The subject of the next assay is MM1S cells. The assay can be described thus: Cell growth inhibition, CellTiter-Glo, 72 h. In kind it is cell-based. As to conditions: Homo sapiens, MM1.S, 72 h culture, mean of N=2. Put shortly:
as §1

The subject of a further assay is vCap cells. Description: Cell growth inhibition, CellTiter-Glo, 72 h. It is filed as cell-based. The following applies: Homo sapiens, 72 h culture, mean of N=2. The method in brief: as §1

T1 sequence (Q92793 1085-1192 limits assumed): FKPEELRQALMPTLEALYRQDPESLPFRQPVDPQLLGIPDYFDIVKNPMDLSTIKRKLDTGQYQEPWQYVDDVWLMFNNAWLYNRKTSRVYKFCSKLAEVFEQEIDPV

Consider `C=CC(=O)N[C@H]1CC[C@@H](c2cc3c(c(N4CCCc5cc(-c6cnn(C)c6)c(C(F)F)cc54)c2)CN(C(C)=O)C3)CC1` [Compound 1339], for which the IC50 was found to be 0.0047 µM on CBP bromodomain; 7.43 µM against BRD4; 0.008 µM in the assay on OPM-2 cells; 2.5 µM with 22RV1 cells; 0.048 µM in the assay on MM1S cells.

On to `C=CS(=O)(=O)N[C@H]1CC[C@H](c2cc3c(c(N4CCCc5cc(-c6cnn(C)c6)c(C(F)F)cc54)c2)CN(C(C)=O)C3)CC1` [Compound 1343], for which the IC50 worked out at 0.0075 µM at CBP bromodomain; 7.88 µM at BRD4; 0.008 µM in the assay on OPM-2 cells; 0.205 µM with 22RV1 cells; 0.039 µM in the assay with MM1S cells.

As to `C=CS(=O)(=O)N1CCC(c2cc3c(c(N4CCCc5cc(-c6cnn(C)c6)c(C(F)F)cc54)c2)CN(C(=O)NC)CC3)CC1` [Compound 1347], the IC50 was 0.0075 µM on CBP bromodomain; more than 10 µM at BRD4; 0.002 µM with OPM-2 cells; 0.155 µM in the assay with 22RV1 cells; 0.026 µM in the assay with MM1S cells.

Turning to `C=CS(=O)(=O)N[C@H]1CC[C@@H](c2cc3c(c(N4CCCc5cc(-c6cnn(C)c6)c(C(F)F)cc54)c2)CN(C(C)=O)C3)CC1` [Compound 1345, N-((1s,4s)-4-(2-acetyl-7-(7-(difluoromethyl)-6-(1-methyl-1H-pyrazol-4-yl)-3,4-dihydroquinolin-1(2H)-yl)isoindolin-5-yl)cyclohexyl)ethenesulfonamide], the IC50 is 0.0093 µM at CBP bromodomain; more than 10 µM against BRD4; 0.012 µM in the assay on vCap cells; 0.004 µM in the assay on OPM-2 cells; 0.048 µM in the assay with 22RV1 cells; 0.015 µM with MM1S cells.

For `C=CS(=O)(=O)N1CCC(c2cc3c(c(N4CCCc5cc(-c6cnn(C)c6)c(C(F)F)cc54)c2)CN(C(C)=O)C3)CC1` [Compound 1344], the IC50 on CBP bromodomain is 0.007 µM; against BRD4, 7.92 µM; in the assay on vCap cells, 0.033 µM; in the assay with OPM-2 cells, 0.015 µM; in the assay with 22RV1 cells, 0.263 µM; with MM1S cells, 0.068 µM.
